# Source: ChEMBL document CHEMBL1201862, “PubChem BioAssay data set” (2004)
# Activity calls are given as the source filed them.
# What was measured:
# [1] = A549 cell cytotoxicity, dose response, CellTiter-Glo luminescence, dry powder, set 17 (AID 1117284); type: functional, cell-based
# [2] = A549 cell cytotoxicity, dose response, cytotoxicity control, 24 h, CellTiter-Glo luminescence, cherry-picks (AID 1053115); type: functional, cell-based; details: A549, 24 h
# [3] = HepG2 cell cytotoxicity, dose response, cytotoxicity control, luminescence plate reader, powder samples, set 2 (AID 651860); type: functional, cell-based
# Vasopressin V2 receptor = Vasopressin V2 receptor (Homo sapiens, UniProt P30518); assay: Late-stage results from the probe development effort to identify antagonists of arginine vasopressin receptor 1a (AVPR1a): fluorescence-based cell-based dose response AVPR2 inhibition counterscreen assay.; type: functional
# Chain of Vasopressin V2 receptor (P30518 whole entry): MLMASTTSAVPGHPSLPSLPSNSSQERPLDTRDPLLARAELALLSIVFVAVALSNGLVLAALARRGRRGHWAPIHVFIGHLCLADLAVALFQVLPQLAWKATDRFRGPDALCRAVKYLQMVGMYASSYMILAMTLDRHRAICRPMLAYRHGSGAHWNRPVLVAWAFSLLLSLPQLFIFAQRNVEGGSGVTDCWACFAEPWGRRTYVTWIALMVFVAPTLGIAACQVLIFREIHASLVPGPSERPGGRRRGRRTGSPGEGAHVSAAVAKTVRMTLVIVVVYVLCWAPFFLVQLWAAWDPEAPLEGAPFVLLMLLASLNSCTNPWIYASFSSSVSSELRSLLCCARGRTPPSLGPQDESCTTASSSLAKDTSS
# [4] = Late-stage results from the probe development effort to identify antagonists of arginine vasopressin receptor 1a (AVPR1a): fluorescence-based cell-based dose response AVPR1a inhibition assay.; type: functional
# Vasopressin V1b receptor = Vasopressin V1b receptor (Homo sapiens, UniProt P47901); assay: Late-stage results from the probe development effort to identify antagonists of arginine vasopressin receptor 1a (AVPR1a): fluorescence-based cell-based dose response AVPR1b inhibition counterscreen assay.; type: functional
# Chain of Vasopressin V1b receptor (P47901 whole entry): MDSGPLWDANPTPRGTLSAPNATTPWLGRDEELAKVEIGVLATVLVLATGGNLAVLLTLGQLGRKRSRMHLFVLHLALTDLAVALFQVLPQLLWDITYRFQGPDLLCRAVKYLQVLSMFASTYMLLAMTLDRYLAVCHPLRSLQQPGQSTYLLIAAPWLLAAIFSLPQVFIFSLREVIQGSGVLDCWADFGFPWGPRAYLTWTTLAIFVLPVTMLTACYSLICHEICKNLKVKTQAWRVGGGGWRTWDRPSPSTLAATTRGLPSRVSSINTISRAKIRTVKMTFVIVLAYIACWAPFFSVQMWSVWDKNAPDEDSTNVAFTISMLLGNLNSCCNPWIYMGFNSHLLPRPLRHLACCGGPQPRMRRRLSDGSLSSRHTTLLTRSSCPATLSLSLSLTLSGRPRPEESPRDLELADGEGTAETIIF
# [5] = Late-stage results from the probe development effort to identify antagonists of arginine vasopressin receptor 1a (AVPR1a): fluorescence-based cell-based dose response OXTR inhibition counterscreen assay.; type: functional
# [6] = CTGF mRNA reduction under YAP1 overexpression, dose response, mechanism study for YAP1 pathway inhibitor project, DLD1 cells, RT-qPCR, cherry-pick (AID 1053127); type: functional, cell-based; details: DLD-1
# [7] = YAP1 pathway inhibition via CTGF transcript levels, dose response, cell-based, DLD1 colon cancer, RT-qPCR, cherry-pick (AID 1053122); type: functional; details: Cancer cell lines
# [8] = P. falciparum Dd2 growth inhibitors, dose response, SYBR Green, dry powder samples, set 9 (AID 1159568); type: functional, cell-based
# [9] = A549 cell cytotoxicity, dose response, cytotoxicity control, plate reader, dry powder, set 6 (AID 743312); type: functional, cell-based
# cells = details: HEK293
# [10] = Mtb BioA inhibitors by displacement, dose response, biochemical, coupled fluorescence displacement, 20-point, dry powder (AID 743357); type: functional
# [11] = P. falciparum ATP4 D1247Y mutant growth inhibitors, dose response, NITD609-resistant line, SYBR Green, dry powder (AID 1159571); type: functional, cell-based;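 also: parasites synchronized at ring stage by sorbitol before testing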
# [12] = HepG2 cell cytotoxicity, dose response, cytotoxicity control, cherry-picked samples (AID 1159577); type: functional, cell-based
# [13] = P. falciparum Dd2 growth inhibitors, dose response, SYBR Green, dry powder samples (AID 1159566); type: functional, cell-based;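 also: potency for growth inhibition with lower SYBR green DNA signal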
# [14] = HepG2 cell cytotoxicity, dose response, cytotoxicity control, plate reader, dry powder samples (AID 1159569); type: functional, cell-based;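 also: inhibitor potency with signal falling toward the positive control level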
# [15] = P. falciparum Dd2 growth inhibitors, dose response, SYBR Green, cherry-picked samples (AID 1159567); type: functional, cell-based
# [16] = Plasmodium falciparum Dd2 Sybr green parasite growth Measured in Cell-Based and Microorganism Combination System Using Plate Reader - 2153-01_Inhibitor_Dose_DryPowder_Activity_Set3.; type: functional
# [17] = P. falciparum 3D7-ScDHODH growth inhibitors, dose response, SYBR Green, dry powder samples (AID 1159570); type: functional, cell-based;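 also: parasite growth measured after 72 hours of compound exposure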
# [18] = cytotoxicity toward HT-29 cells – cell-based, CellTiter-Glo luminescence, IC50, dose response (AID 1117330); type: functional
# [19] = SNU-C1 cell viability reduction, dose response, CellTiter-Glo luminescence (AID 1117323); type: functional, cell-based
# [20] = HCT116 cell viability decrease, GSK3B pretreatment – CellTiter-Glo, IC50, dose response (AID 1117339); type: functional; details: HCT-116
# [21] = RKO cell viability reduction, dose response, CellTiter-Glo luminescence (AID 1117322); type: functional
# [22] = cytotoxicity toward Colo320 cells – cell-based, CellTiter-Glo luminescence, IC50, dose response (AID 1117334); type: functional; details: COLO 320
# [23] = cytotoxicity toward HCT116 cells – cell-based, CellTiter-Glo luminescence, IC50, dose response (AID 1117332); type: functional; details: HCT-116
# [24] = CellTiter-Glo luminescent dose response of DLD-1 viability loss (AID 1117352); type: functional
smiles,measurement,setting,value
C[C@H](CO)N1C[C@H](C)[C@@H](CN(C)Cc2ccc(-c3ccccc3)cc2)Oc2cc(C#C[C@@H](C)O)ccc2S1(=O)=O,AC50,[1],42.5 µM (active)
same,AC50,[2],52.6 µM (active)
Cc1cc(C)c(S(=O)(=O)Nc2cc(C(C(=O)OC(C)C)C(=O)C(F)(F)F)c(O)c3ccccc23)c(C)c1 (configuration not stated),AC50,[3],> 52 µM (inactive)
Cc1ccccc1N1CCN(C(=O)N(CC2CC2)c2ccc(Cl)cc2)CC1,IC50,Vasopressin V2 receptor,1.02 µM (active)
same,IC50,[4],0.0027 µM (active)
same,IC50,Vasopressin V1b receptor,12.8 µM (inactive)
same,IC50,[5],0.046 µM (active)
COc1cccc(-c2ccc([C@H]3[C@H]4CN(C(=O)Cc5ccncc5)CCCCN4[C@H]3CO)cc2)c1,AC50,[6],9.34 µM (active)
same,AC50,[7],2.79 µM (active)
C[C@@H]1CCCCO[C@H](CN(C)S(=O)(=O)c2ccc(F)cc2)[C@@H](C)CN([C@H](C)CO)C(=O)c2cc(N(C)C)ccc2O1,AC50,[8],11.4 µM (active)
Cc1ccc(C(C)C)c(OCCn2c(=O)[nH]c3ccccc32)c1,AC50,[9],23.1 µM (active)
same,AC50,cells,32.4 µM (active)
CN(C)C(=O)c1ccc(N2CCN(C(=O)c3ccc4c(c3)OCO4)CC2)cc1,AC50,[10],14 µM (active)
CO[C@@H]1CN(C)C(=O)c2ccc(NC(=O)Nc3ccccc3Cl)cc2OC[C@@H](C)N(C)C[C@H]1C,AC50,[11],0.512 µM (active)
same,AC50,[12],> 39 µM (inactive)
same,AC50,[13],0.102 µM (active)
same,AC50,[14],62.2 µM (active)
same,AC50,[15],0.666 µM (active)
same,AC50,[16],0.446 µM (active)
same,AC50,[17],4.25 µM (active)
Cc1ccc2c(Br)cc(Br)c(O)c2n1 [BROQUINALDOL],IC50,[18],> 6.67 µM (inactive)
same,IC50,[19],12.8 µM (inactive)
same,IC50,[20],1.03 µM (active)
same,IC50,[21],0.311 µM (active)
same,IC50,[22],0.001 µM (active)
same,IC50,[23],1.16 µM (active)
same,IC50,[24],4.77 µM (active)
